Measurements from US12351571B2, “Substituted quinoxaline compounds as inhibitors of FGFR tyrosine kinases” (ARRAY BIOPHARMA INC., priority 2018, dated 2025).

How the values were obtained:
dephosphorylated FGFR1 = dephosphorylated FGFR1 (Homo sapiens (Human), UniProt P11362); assay: FGFR Enzyme Binding Assay (HTRF tracer displacement), FGFR1; conditions: 5 nM dephosphorylated FGFR1, 60 minute incubation at 22° C.; read-out: FGFR1 Enz Binding IC50
Description: (§1) The potency of compounds inhibiting human isoforms of FGFR kinase was determined using Life Technologies' Homogeneous Time Resolved Fluorescence (HTRF)-based binding assay technology. An incubation was conducted with either 5 nM dephosphorylated FGFR1 (Array Biopharma, p1702; SEQ ID NO: 1, amino acids 458 to 765, dephosphorylated by co-expression with PTP1b (protein tyrosine phosphatase 1B)), 5 nM dephosphorylated FGFR2 (Life Technologies, Cat. No. PV4106 that had been dephosphorylated with Lambda protein phosphatase (New England Biolabs, cat #P0753)) or 5 nM phosphorylated FGFR3 (Array Biopharma, p1836; SEQ ID NO: 5, amino acids 449 to 759), 50 nM Kinase Tracer 236 (Life Technologies Cat. No. PR9078A), 2 nM Biotin-anti-6HIS (Life Technologies Cat. No. PV6090) and 2 nM Europium-Streptavidin (Life Technologies Cat. No. PV6025) along with test compound in a buffer consisting of 50 mM HEPES ((4-(2-hydroxyethyl)-1-piperazineethanesulfonic acid, pH 7.5), 5 mM MgCl2, 0.005% Triton X-100, 1 mM DTT, 1 mM NaVO4 and 2% DMSO in a final volume of 12 μL Compounds were typically prepared as a 3-fold or 4-fold serial dilution in DMSO and added to the assay to give the appropriate final concentration. After a 60 minute incubation at 22° C., the extent of tracer displacement was determined using a PerkinElmer EnVision multimode plate reader via HTRF dual wavelength detection, and the percent of control (POC) was calculated using a ratiometric emission factor. One hundred POC was determined using no test compound, and 0 POC was determined in the presence of 1 μM of an appropriate control inhibitor. A 4-parameter logistic curve was fit to the POC values as a function of the concentration of compound, and the IC50 value was the point where the best-fit curve crossed 50 POC.

[1] = molecular target: recombinant human FGFR2 cytoplasmic domain (Homo sapiens (Human), UniProt P21802); assay: FGFR Enzyme Activity Assay (LanthaScreen TR-FRET), FGFR2; format: biochemical; conditions: 15 μM ATP, 20 minute incubation; read-out: FGFR2 Enz FRET IC50
Description: FGFR2 kinase activity was measured by the Invitrogen LanthaScreen™ Assay technology which directly measures the amount of substrate phosphorylation by TR-FRET using a flourescently-labeled peptide and Europium-labeled antibody. Briefly, 200 pM His-tagged recombinant human FGFR2 cytoplasmic domain (amino acids 403-822) (Life Technologies Cat. No. PR5332A) was incubated with 100 nM Alexa Fluor® 647-Poly-GT Peptide Substrate (Life Technologies Cat. No. PV5836) and 15 μM ATP along with test compound in a buffer consisting of 250 mM HEPES, 25 mM MgCl2, 0.05% TritonX-100, pH 7.5, and 2% DMSO. Compounds were typically prepared in a threefold serial dilution in DMSO and added to the assay to give the appropriate final concentration. After a 20 minute incubation at 22° C., an equal volume of 2 nM LanthaScreen® Eu-PY20 Antibody (Life Technologies Cat. No. PV5691) and 10 mM EDTA were added to quench the kinase reaction and start the detection reaction. After an additional 60 minute incubation at 22° C., the reaction was measured using a PerkinElmer EnVision multimode plate reader via TR-FRET dual wavelength detection, and the percent of control (POC) calculated using a ratiometric emission factor. 100 POC was determined using no test compounds and 0 POC was determined using no enzyme. The POC values were fit to a 4-parameter logistic curve as a function of the concentration of the compound, and the IC50 value is the point where the curve crosses 50 POC.

phosphorylated FGFR3 = phosphorylated FGFR3 (Homo sapiens (Human), UniProt P22607); assay: FGFR Enzyme Binding Assay (HTRF tracer displacement), FGFR3; conditions: 5 nM phosphorylated FGFR3, 60 minute incubation at 22° C.; read-out: FGFR3 Enz Binding IC50
Description: as §1

human wild type FGFR1 = human wild type FGFR1 (Homo sapiens (Human), UniProt P11362); assay: FGFR1 pERK Cell Assay; format: cell-based; conditions: HEK-293 cells, 1 hour compound, 100 ng/ml human FGF-acidic; maximum concentration 5 μM
Description: HEK-293 cells transfected with doxycycline(dox)-inducible human wild type FGFR1 (SEQ ID NO: 1) were plated in a collagen or poly-D-lysine coated 96 well flat bottom plates at 4×10^5 cells/well in complete Dulbecco's Modified Eagle Medium (DMEM) containing 10% FBS and 1 μg/ml doxycycline and allowed to attach for 24 h at 37° C., 5% CO2. Cells were treated with compound using 1:3 serial dilutions with a maximum final concentration of 5 μM. Compound was incubated on cells for 1 hour at 37° C., 5% CO2. Cells were then stimulated with a final concentration of 100 ng/ml human FGF-acidic (R&D Systems Cat number 232-FA/CF) for 5 minutes at 37° C., 5% CO2. Medium was removed, and cells were lysed with lysis buffer containing phosphatase and protease inhibitors. Phospho ERK1/2 was measured using the Meso Scale Discovery sandwich assay (Meso Scale Discovery cat. no. K151DWD). The assay captures phospho ERK1/2 and detects with a sulfo-tagged total ERK1/2 antibody. The chemiluminescent signal was read on the Sector Imager Plate reader. 100 POC was determined using no test compound and 0 POC was determined using a control compound. The POC values were fit to a 4-parameter logistic curve as a function of the concentration of the compound, and the IC50 value is the point where the curve crosses 50 POC.

Sequence of recombinant human FGFR2 cytoplasmic domain (P21802 402-821): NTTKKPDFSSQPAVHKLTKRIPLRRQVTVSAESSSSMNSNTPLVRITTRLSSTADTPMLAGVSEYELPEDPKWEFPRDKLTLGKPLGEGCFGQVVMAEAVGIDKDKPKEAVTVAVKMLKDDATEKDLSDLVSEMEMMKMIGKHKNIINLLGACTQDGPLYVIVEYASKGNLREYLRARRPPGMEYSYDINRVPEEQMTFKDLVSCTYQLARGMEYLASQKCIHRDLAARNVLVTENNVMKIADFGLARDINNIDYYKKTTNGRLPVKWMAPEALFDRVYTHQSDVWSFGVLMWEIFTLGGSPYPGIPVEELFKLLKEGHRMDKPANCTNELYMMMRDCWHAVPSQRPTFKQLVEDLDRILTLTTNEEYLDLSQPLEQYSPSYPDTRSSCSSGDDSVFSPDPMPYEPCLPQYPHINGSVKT
Sequence of human wild type FGFR1 (P11362 22-822): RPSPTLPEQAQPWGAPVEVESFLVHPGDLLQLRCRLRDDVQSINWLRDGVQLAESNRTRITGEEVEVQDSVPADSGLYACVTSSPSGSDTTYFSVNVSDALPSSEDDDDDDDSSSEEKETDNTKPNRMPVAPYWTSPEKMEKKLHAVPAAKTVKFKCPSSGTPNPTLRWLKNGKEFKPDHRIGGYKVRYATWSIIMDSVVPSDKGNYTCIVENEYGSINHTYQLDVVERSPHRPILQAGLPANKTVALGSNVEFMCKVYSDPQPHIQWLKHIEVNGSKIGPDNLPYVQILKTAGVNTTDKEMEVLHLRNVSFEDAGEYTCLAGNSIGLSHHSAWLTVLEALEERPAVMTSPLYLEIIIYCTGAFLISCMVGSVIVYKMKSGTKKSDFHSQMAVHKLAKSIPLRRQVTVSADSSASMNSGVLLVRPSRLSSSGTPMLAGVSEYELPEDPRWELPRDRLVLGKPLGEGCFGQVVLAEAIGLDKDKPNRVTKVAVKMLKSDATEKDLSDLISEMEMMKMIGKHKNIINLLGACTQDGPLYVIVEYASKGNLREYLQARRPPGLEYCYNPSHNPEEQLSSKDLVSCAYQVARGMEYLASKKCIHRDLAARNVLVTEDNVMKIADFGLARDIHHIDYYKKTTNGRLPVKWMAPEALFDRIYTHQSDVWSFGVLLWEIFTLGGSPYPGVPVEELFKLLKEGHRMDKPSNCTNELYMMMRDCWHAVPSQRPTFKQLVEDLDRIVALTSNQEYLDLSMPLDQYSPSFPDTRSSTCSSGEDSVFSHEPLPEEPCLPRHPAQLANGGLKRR
Sequence of phosphorylated FGFR3 (P22607 449-759): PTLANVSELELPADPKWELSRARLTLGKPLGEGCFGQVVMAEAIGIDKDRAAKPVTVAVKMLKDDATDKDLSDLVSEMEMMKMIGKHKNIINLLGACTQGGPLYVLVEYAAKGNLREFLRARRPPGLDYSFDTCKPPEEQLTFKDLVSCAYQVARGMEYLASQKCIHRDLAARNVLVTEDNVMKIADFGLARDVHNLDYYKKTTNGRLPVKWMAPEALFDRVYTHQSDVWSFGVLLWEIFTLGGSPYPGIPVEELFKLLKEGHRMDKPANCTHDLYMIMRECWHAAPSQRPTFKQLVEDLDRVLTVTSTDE
Sequence of dephosphorylated FGFR1 (P11362 458-765): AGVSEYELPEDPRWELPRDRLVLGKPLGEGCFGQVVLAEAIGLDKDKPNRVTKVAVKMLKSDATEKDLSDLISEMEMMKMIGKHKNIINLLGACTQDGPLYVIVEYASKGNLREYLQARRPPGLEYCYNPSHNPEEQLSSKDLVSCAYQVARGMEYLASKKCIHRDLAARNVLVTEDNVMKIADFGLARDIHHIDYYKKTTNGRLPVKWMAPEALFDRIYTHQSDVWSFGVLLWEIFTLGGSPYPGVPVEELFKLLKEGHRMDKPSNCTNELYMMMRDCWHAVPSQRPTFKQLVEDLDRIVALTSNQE

IC50 (dephosphorylated FGFR1) [nM] | IC50 [1] [nM] | IC50 (phosphorylated FGFR3) [nM] | IC50 (human wild type FGFR1) [nM] | Structure (SMILES)
244 | 555 | 18 | 3660 | C=CC(=O)N1CC(C(=O)N2CCC(n3ncc(-c4cnc5ccc(Nc6cc(OC)cc(OC)c6)cc5n4)c3C)CC2)C1 [Example 18, 1-(3-(4-(4-(7-((3,5-dimethoxyphenyl)amino)-quinoxalin-2-yl)-5-methyl-1H-pyrazol-1-yl)piperi-dine-1-carbonyl)azetidin-1-yl)prop-2-en-1-one]
132 | 124 | 9 | ≥ 5000 | COc1cc(Nc2ccc3ncc(-c4ccc(N5CCN(C(=O)C6CN(C(=O)/C=C/CN(C)C)C6)CC5)nc4)nc3c2)cc(OC)c1 [Example 6, (E)-1-(3-(4-(5-(7-((3,5-dimethoxyphenyl)amino)-quinoxalin-2-yl)pyridin-2-yl)piperazine-1-carbonyl)azetidin-1-yl)-4-(dimethylamino)but-2-en-1-one]
